Target: T1, recombinant full-length human prolyl endopeptidase (PREP) (Homo sapiens, UniProt P48147)
T1 construct: To recombinant full-length human prolyl endopeptidase (PREP, R&D-Systems, 4308-SE); purchased R&D-Systems 4308-SE
T1 sequence (P48147 1-710): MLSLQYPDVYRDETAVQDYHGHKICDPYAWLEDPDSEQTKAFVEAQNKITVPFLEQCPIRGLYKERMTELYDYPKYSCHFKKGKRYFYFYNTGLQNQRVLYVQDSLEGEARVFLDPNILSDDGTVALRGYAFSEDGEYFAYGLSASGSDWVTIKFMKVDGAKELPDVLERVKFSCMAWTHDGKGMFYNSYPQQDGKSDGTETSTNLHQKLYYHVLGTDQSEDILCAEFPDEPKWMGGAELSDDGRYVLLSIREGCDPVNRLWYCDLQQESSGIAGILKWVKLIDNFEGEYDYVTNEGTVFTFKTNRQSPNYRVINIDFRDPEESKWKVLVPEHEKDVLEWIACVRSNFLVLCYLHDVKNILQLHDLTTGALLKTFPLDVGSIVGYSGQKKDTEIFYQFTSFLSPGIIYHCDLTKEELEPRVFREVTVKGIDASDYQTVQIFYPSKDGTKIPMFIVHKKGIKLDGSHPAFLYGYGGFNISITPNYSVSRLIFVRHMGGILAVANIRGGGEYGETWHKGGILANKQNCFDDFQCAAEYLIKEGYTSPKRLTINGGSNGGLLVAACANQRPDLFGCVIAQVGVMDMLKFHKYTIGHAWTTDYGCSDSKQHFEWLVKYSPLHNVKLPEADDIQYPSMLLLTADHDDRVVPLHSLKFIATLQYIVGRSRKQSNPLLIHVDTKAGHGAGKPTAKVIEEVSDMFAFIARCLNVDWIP
Experiment: Biochemical human prolyl endopeptidase (PREP) assay with fluorescently labelled substrate
Details: substrate Z-Gly-Pro-AMC 50 μM, 32° C., 60 min; some as mean values from multiple independent determinations
Method in brief: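 0.4 nM (final, example) recombinant PREP in pH 7.5 Tris buffer with EDTA, GSH, BSA and Brij-35; compounds at 1 nM to 30 μM. Reaction started with 50 μM Z-Gly-Pro-AMC and followed by fluorescence (ex 360/em 465 nm) at 32° C for 60 min. IC50 interpolated from percent activity based on initial slopes.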

IC50 [nM] | Structure (SMILES)
1.28 | O=C(C1CCCc2nn(Cc3ccc(Cl)cc3)c(=O)n21)N1CCCC1 (racemic) [Example 27, (5RS)-2-(4-Chlorobenzyl)-5-(pyrrolidin-1-ylcarbonyl)-5,6,7,8-tetrahydro[1,2,4]triazolo[4,3-a]pyridin-3(2H)-one]
35 | O=C(C1C(C(F)(F)F)CCc2nn(Cc3ccnc(C(F)(F)F)c3F)c(=O)n21)N1CC(F)C1 (single isomer, unassigned) [Example 303, (5RS,6RS)-5-[(3-Fluoroazetidin-1-yl)carbonyl]-2-{[3-fluoro-2-(trifluoromethyl)pyridin-4-yl]methyl}-6-(trifluoromethyl)-5,6,7,8-tetrahydro[1,2,4]triazolo[4,3-a]pyridin-3(2H)-one]
1.75 | O=C(C1CCCc2nn(Cc3cc(Cl)cc(Cl)c3)c(=O)n21)N1CCC(F)(F)C1 (racemic) [Example 82, (5RS)-2-(3,5-Dichlorobenzyl)-5-[(3,3-difluoropyrrolidin-1-yl)carbonyl]-5,6,7,8-tetrahydro[1,2,4]triazolo[4,3-a]pyridin-3(2H)-one]
5.5 | O=C([C@@H]1CCCc2nn(Cc3ccc(C(F)F)nc3)c(=O)n21)N1CC(F)C1 [Example 209, (5S)-2-{[6-(Difluoromethyl)pyridin-3-yl]methyl}-5-[(3-fluoroazetidin-1-yl)carbonyl]-5,6,7,8-tetrahydro[1,2,4]triazolo[4,3-a]pyridin-3(2H)-one]
4.1 | O=C(C1CCc2nn(Cc3ccc(F)c(Cl)c3)c(=O)n21)N1CCC(F)(F)C1 (racemic) [Example 168, (5RS)-2-(3-Chloro-4-fluorobenzyl)-5-[(3,3-difluoropyrrolidin-1-yl)carbonyl]-2,5,6,7-tetrahydro-3H-pyrrolo[2,1-c][1,2,4]triazol-3-one]
0.76 | O=C([C@@H]1CCCc2nn(Cc3cccc(C(F)(F)F)c3)c(=O)n21)N1C[C@@H](F)[C@@H](F)C1 [Example 445, (5S)-5-{[(3R,4S)-3,4-Difluoropyrrolidin-1-yl]carbonyl}-2-[3-(trifluoromethyl)benzyl]-5,6,7,8-tetrahydro[1,2,4]triazolo[4,3-a]pyridin-3(2H)-one]
0.061 | N#C[C@@H]1CCCN1C(=O)[C@@H]1CCCc2nn(Cc3ncc(Cl)cc3F)c(=O)n21 [Example 514, (2S)-1-({(5S)-2-[(5-Chloro-3-fluoropyridin-2-yl)methyl]-3-oxo-2,3,5,6,7,8-hexahydro[1,2,4]triazolo[4,3-a]pyridin-5-yl}carbonyl)pyrrolidine-2-carbonitrile]
4.1 | O=C(C1CC(C(F)(F)F)Cc2nn(Cc3ccc(Cl)cn3)c(=O)n21)N1CCC(F)(F)C1 (racemic) [Example 566, (5RS,7RS)-2-[(5-Chloropyridin-2-yl)methyl]-5-[(3,3-difluoropyrrolidin-1-yl)carbonyl]-7-(trifluoromethyl)-5,6,7,8-tetrahydro[1,2,4]triazolo[4,3-a]pyridin-3(2H)-one]
5 | COc1cccc(Cn2nc3n(c2=O)C(C(=O)N2CCC(F)(F)C2)CCC3)c1 (racemic) [Example 48, (5RS)-5-[(3,3-Difluoropyrrolidin-1-yl)carbonyl]-2-(3-methoxybenzyl)-5,6,7,8-tetrahydro[1,2,4]triazolo[4,3-a]pyridin-3(2H)-one]
98.5 | O=C(C1C(C(F)(F)F)CCc2nn(Cc3ccc(C(F)(F)F)nc3)c(=O)n21)N1CC[C@H](F)C1 (single isomer, unassigned) [Example 286]
0.82 | O=C([C@@H]1CCCc2nn(Cc3ccc(C(F)(F)F)c(F)c3)c(=O)n21)N1CCC(F)(F)C1 [Example 470, (5S)-5-[(3,3-Difluoropyrrolidin-1-yl)carbonyl]-2-[3-fluoro-4-(trifluoromethyl)benzyl]-5,6,7,8-tetrahydro[1,2,4]triazolo[4,3-a]pyridin-3(2H)-one]
0.21 | Cc1ccc(Cn2nc3n(c2=O)[C@H](C(=O)N2CCC[C@H]2C#N)CCC3)cc1 [Example 109, (2S)-1-{[(5S)-2-(4-Methylbenzyl)-3-oxo-2,3,5,6,7,8-hexahydro[1,2,4]triazolo[4,3-a]pyridin-5-yl]carbonyl}pyrrolidine-2-carbonitrile]
0.96 | COc1ccc(C2(Cn3nc4n(c3=O)[C@H](C(=O)N3CCC(F)(F)C3)CCC4)CC2)cc1 [Example 529, (5S)-5-[(3,3-Difluoropyrrolidin-1-yl)carbonyl]-2-{[1-(4-methoxyphenyl)cyclopropyl]methyl}-5,6,7,8-tetrahydro[1,2,4]triazolo[4,3-a]pyridin-3(2H)-one]
0.725 | O=C([C@@H]1CCCc2nn(Cc3ccc(F)cc3F)c(=O)n21)N1CCC(F)(F)C1 [Example 487, (5S)-2-(2,4-Difluorobenzyl)-5-[(3,3-difluoropyrrolidin-1-yl)carbonyl]-5,6,7,8-tetrahydro[1,2,4]triazolo[4,3-a]pyridin-3(2H)-one]
0.615 | O=C([C@@H]1CCCc2nn(Cc3ccc(F)c(C(F)(F)F)c3)c(=O)n21)N1CC[C@H](F)C1 [Example 448, (5S)-5-{[(3S)-3-Fluoropyrrolidin-1-yl]carbonyl}-2-[4-fluoro-3-(trifluoromethyl)benzyl]-5,6,7,8-tetrahydro[1,2,4]triazolo[4,3-a]pyridin-3(2H)-one]
1.9 | Cn1nc(Cn2nc3n(c2=O)[C@H](C(=O)N2CCC(F)(F)C2)CCC3)c2cccnc21 [Example 413, (5S)-5-[(3,3-Difluoropyrrolidin-1-yl)carbonyl]-2-[(1-methyl-1H-pyrazolo[3,4-b]pyridin-3-yl)methyl]-5,6,7,8-tetrahydro[1,2,4]triazolo[4,3-a]pyridin-3(2H)-one]
0.57 | O=C(C1CCCc2nn(Cc3cccc(C(F)(F)F)c3)c(=O)n21)N1CCCC1 (racemic) [Example 19, (5RS)-5-(Pyrrolidin-1-ylcarbonyl)-2-[3-(trifluoromethyl)benzyl]-5,6,7,8-tetrahydro[1,2,4]triazolo[4,3-a]pyridin-3(2H)-one]
7 | O=C(C1CCc2nn(Cc3ccnc(C(F)(F)F)c3F)c(=O)n21)N1C[C@@H](F)[C@@H](F)C1 (mixture of isomers) [Example 175, (5RS)-5-{[(3R,4S)-3,4-Difluoropyrrolidin-1-yl]carbonyl}-2-{[3-fluoro-2-(trifluoromethyl)pyridin-4-yl]methyl}-2,5,6,7-tetrahydro-3H-pyrrolo[2,1-c][1,2,4]triazol-3-one]
2.4 | COc1ccc(Cn2nc3n(c2=O)[C@H](C(=O)N2CCC(F)(F)C2)CCC3)cn1 [Example 434, (5S)-5-[(3,3-Difluoropyrrolidin-1-yl)carbonyl]-2-[(6-methoxypyridin-3-yl)methyl]-5,6,7,8-tetrahydro[1,2,4]triazolo[4,3-a]pyridin-3(2H)-one]
0.72 | COc1ccc(C2(Cn3nc4n(c3=O)[C@H](C(=O)N3CC[C@H](F)C3)CCC4)CC2)cc1 [Example 528, (5S)-5-{[(3S)-3-Fluoropyrrolidin-1-yl]carbonyl}-2-{[1-(4-methoxyphenyl)cyclopropyl]methyl}-5,6,7,8-tetrahydro[1,2,4]triazolo[4,3-a]pyridin-3(2H)-one]
0.225 | O=C([C@@H]1CCCc2nn(Cc3ncc(C(F)(F)F)cc3Cl)c(=O)n21)N1CC[C@H](F)C1 [Example 405, (5S)-2-{[3-Chloro-5-(trifluoromethyl)pyridin-2-yl]methyl}-5-{[(3S)-3-fluoropyrrolidin-1-yl]carbonyl}-5,6,7,8-tetrahydro[1,2,4]triazolo[4,3-a]pyridin-3(2H)-one]
8 | O=C(C1CCCc2nn(Cc3ccc(OC(F)F)cc3)c(=O)n21)N1CCCC1 (racemic) [Example 7, (5RS)-2-[4-(Difluoromethoxy)benzyl]-5-(pyrrolidin-1-ylcarbonyl)-5,6,7,8-tetrahydro[1,2,4]triazolo[4,3-a]pyridin-3(2H)-one]
1.59 | Cc1ccc(Cn2nc3n(c2=O)C(C(=O)N2CC(F)C2)CCC3)cc1 (racemic) [Example 112, (5RS)-5-[(3-Fluoroazetidin-1-yl)carbonyl]-2-(4-methylbenzyl)-5,6,7,8-tetrahydro[1,2,4]triazolo[4,3-a]pyridin-3(2H)-one]
31.5 | O=C(C1CCc2nn(Cc3ccc(Cl)nc3)c(=O)n21)N1CC(F)C1 (racemic) [Example 169, (5RS)-2-[(6-Chloropyridin-3-yl)methyl]-5-[(3-fluoroazetidin-1-yl)carbonyl]-2,5,6,7-tetrahydro-3H-pyrrolo[2,1-c][1,2,4]triazol-3-one]
0.18 | O=C([C@@H]1CCCc2nn(Cc3cc(C(F)(F)F)nc4ccccc34)c(=O)n21)N1C[C@@H](F)[C@@H](F)C1 [Example 497, (5S)-5-{[(3R,4S)-3,4-Difluoropyrrolidin-1-yl]carbonyl}-2-{[2-(trifluoromethyl)quinolin-4-yl]methyl}-5,6,7,8-tetrahydro[1,2,4]triazolo[4,3-a]pyridin-3(2H)-one]
